For data set [1], the system named is Septoria tritici. Put plainly: In vitro-Test with Septoria tritici. The class given is cell-based. To be noted: compound alone.
The next data set concerns Alternaria alternata. Put plainly: In vitro-Test with Alternaria alternata. The class given is cell-based.
Data set [2] has as its system Septoria tritici. Kind of data set: In vivo preventive Septoria tritici test (wheat). To be noted: 21 days after inoculation. On the procedure: After the spray coating has been dried, the plants are sprayed with a spore suspension of Septoria tritici.
The test is evaluated 21 days after the inoculation.

Data set [3] concerns Blumeria graminis f.sp. hordei. Kind of data set: In vivo preventive Blumeria test (barley). The following applies: Table F1, 7 days after inoculation.
The test system of data set [4] is fish (Danio rerio) embryos. Kind of data set: In vivo ecotoxicity screening test on fish (Danio rerio). The following applies: active compound alone; fish embryos, 96 h, 28.5° C. On the procedure: with ECxi the Effect Concentration (EC) of each chemical i (in ppm) causing x % effect on the ecotoxicity test endpoint.
For each compound combination, the predicted ECx value is calculated. It is then compared to an experimentally measured value. The ratio of predicted versus measured effect for the combination (thereafter called the Model Deviation Ratio or MDR) is then calculated.
The environmental effect of the compound combinations was measured experimentally in laboratory ecotoxicity screening studies with fish (Danio rerio). […] Mortality was recorded after 96 h for each tested concentration and a reference control. […] Then, the MDR values were calculated.
• Solvent: 0.5% by weight dimethyl sulfoxide
This concentrate is then diluted with water to the desired a.i. concentration, leading to a maximal solvent concentration of 0.5% by weight. The compounds alone and the combinations were tested for five increasing concentrations between 0.01 and 1000 ppm a.i., (e.g. 0.1, 1.0, 10 and 100 ppm a.i). For the combinations, compounds A and B were mixed in a weight ratio of 5:1 to 1:5 and five increasing concentrations were tested for each ratio.

The next data set concerns Puccinia triticina. Kind of data set: In vivo preventive Puccinia triticina test (wheat). To be noted: 8 days after inoculation. On the procedure:
After the spray coating has been dried, the plants are sprayed with a spore suspension of Puccinia triticina.
(§1) The test is evaluated 8 days after the inoculation.

In a further data set the test system is Ustilago avenae. Kind of data set: In vitro-Test with Ustilago avenae. The class given is cell-based. To be noted: 5 ppm, compound alone.
A further data set relates to Venturia inaequalis. Put plainly: In vivo preventive test on Venturia (apples). To be noted: 10 days after inoculation. Here is the method:
The test is evaluated 10 days after the inoculation.

In a further data set the test system is Leptosphaeria nodorum. Kind of data set: In vivo preventive Leptosphaeria nodorum test (wheat). To be noted: Table G1, 8 days after inoculation. On the procedure: After the spray coating has been dried, the plants are sprayed with a spore suspension of Leptosphaeria nodorum.
as §1

Another data set deals with Pyrenophora teres. Put plainly: In vitro-Test with Pyrenophora teres. The class given is cell-based.
A further data set concerns Pyricularia oryzae. The data set is classed as cell-based.
For another data set, the system named is Sphaerotheca fuliginea. Put plainly: In vivo preventive test on Sphaerotheca (cucumbers). The following applies: Table D1, 7 days after inoculation.
For another data set, the system named is Phakopsora pachyrhizi. Put plainly: In vivo preventive test on Phakopsora (soybeans). The following applies: Table C3, 7 days after inoculation.

Several values for one entry are separate records, joined by “and”; a condition that tells them apart may be missing. Equal values may be shown once. Read-outs that look alike come from different tables or passages of the source.

Take `CC(C)(C)[C@@H](O)[C@@H](Cc1ccc(Cl)cc1)n1cncn1` (racemic) [Example 1.015, paclobutrazol]: the Efficacy % with Septoria tritici [1] (1 ppm) stood at 13%; with Alternaria alternata (1 ppm) it was 0%.
For `O=C(NCCc1ncc(C(F)(F)F)cc1Cl)c1ccccc1C(F)(F)F` [Example 2.005, fluopyram], the Efficacy % in the data set with Septoria tritici [1] (0.04 ppm) was 43% and 22%; in the data set with Septoria tritici [1] (0.2 ppm), 93% and 67%; with Ustilago avenae, 0%. Further, the “Efficacy in % found” value in the data set on Septoria tritici [2] (30 ppm a.i.) was 38% and 29%; in the data set on Septoria tritici [2] (60 ppm a.i.), 88% and 71%; in [3] (15 ppm a.i.), 0%; in [3] (30 ppm a.i.), 0%; in data set [3] (60 ppm a.i.) it was 29%; in the data set with Puccinia triticina (15 ppm a.i.) it was 0%. The “Efficacy in % found” value amounted to 0% with Puccinia triticina (30 ppm a.i.); 0% with Puccinia triticina (60 ppm a.i.); 0% with Puccinia triticina (Table H1, 15 ppm a.i.); 0% in the data set on Puccinia triticina (Table H1, 30 ppm a.i.); 33% in the data set on Puccinia triticina (Table H1, 60 ppm a.i.). Moreover, the “Ecotoxicity LC50-96 h found” value in [4] is given as above 200 ppm a.i.
With `CCCOc1nc2ccc(I)cc2c(=O)n1CCC` [Example 13.004, proquinazid], the Efficacy % in the data set with Septoria tritici [1] (20 ppm) was determined as 55%; in the data set on Septoria tritici [1] (100 ppm), 28%; in the data set on Alternaria alternata (0.8 ppm), 0%; in the data set with Alternaria alternata (4 ppm), 0%. Further, the “Efficacy in % found” value in the data set on Septoria tritici [2] (250 ppm a.i.) is 0%; in the data set with Septoria tritici [2] (500 ppm a.i.) it was 0%; in the data set on Septoria tritici [2] (1000 ppm a.i.), 0%; with Venturia inaequalis (Table E1, 12.5 ppm a.i.), 0%; with Venturia inaequalis (Table E1, 25 ppm a.i.), 0%; in the data set on Venturia inaequalis (Table E1, 50 ppm a.i.) it was 0%. Further, the “Efficacy in % found” value in the data set on Leptosphaeria nodorum (250 ppm a.i.) is given as 0%; with Leptosphaeria nodorum (500 ppm a.i.), 14%; in the data set with Leptosphaeria nodorum (1000 ppm a.i.), 14%. Moreover, the “Ecotoxicity LC50-96 h found” value in data set [4] is listed as 9.89 ppm a.i.
On to `O=C(Nc1ccccc1)N(Cc1ccc(Cl)cc1)C1CCCC1` [Example 4.005, pencycuron], for which the Efficacy % in the data set on Septoria tritici [1] (20 ppm) stood at 8%; with Septoria tritici [1] (100 ppm), 0%; in the data set on Pyrenophora teres (20 ppm) it was 17%; with Pyrenophora teres (100 ppm), 5%. Moreover, the “Efficacy in % found” value in the data set on Septoria tritici [2] (62.5 ppm a.i.) was found to be 0%; in the data set with Septoria tritici [2] (125 ppm a.i.), 0%; in the data set with Septoria tritici [2] (250 ppm a.i.), 0%; with Venturia inaequalis (Table E1, 25 ppm a.i.), 0%; with Venturia inaequalis (Table E1, 50 ppm a.i.), 0%; in the data set on Venturia inaequalis (Table E1, 100 ppm a.i.), 4%. Also, the “Efficacy in % found” value with Puccinia triticina (62.5 ppm a.i.) was 0%; with Leptosphaeria nodorum (62.5 ppm a.i.), 14%; with Leptosphaeria nodorum (125 ppm a.i.), 14%; in the data set on Leptosphaeria nodorum (250 ppm a.i.) it was 29%. Further, in [4], the “Ecotoxicity LC50-96 h found” value is listed as above 200 ppm a.i.
For `O=C(Cc1ccccc1)N/C(=N\OCC1CC1)c1c(C(F)(F)F)ccc(F)c1F` [Example 15.008, cyflufenamid], the “Efficacy in % found” value was determined as 14% with Septoria tritici [2] (250 ppm a.i.); 29% in the data set on Septoria tritici [2] (500 ppm a.i.); 29% with Septoria tritici [2] (1000 ppm a.i.); 0% in the data set with Venturia inaequalis (Table E2, 5 ppm a.i.); 0% in the data set with Venturia inaequalis (Table E2, 10 ppm a.i.); 4% in the data set with Venturia inaequalis (Table E2, 20 ppm a.i.). In addition, the “Efficacy in % found” value came out at 0% with Puccinia triticina (250 ppm a.i.); 0% with Puccinia triticina (500 ppm a.i.); 22% in the data set on Puccinia triticina (1000 ppm a.i.); 0% in the data set with Leptosphaeria nodorum (250 ppm a.i.); 0% with Leptosphaeria nodorum (500 ppm a.i.); 0% with Leptosphaeria nodorum (1000 ppm a.i.). Also, in [4], the “Ecotoxicity LC50-96 h found” value is given as 5.2 ppm a.i. The Efficacy % was found to be 17% with Pyricularia oryzae (4 ppm) and 91% with Pyricularia oryzae (20 ppm).
For the compound `CON=C(C(=O)OC)c1ccccc1CON=C(C)c1cccc(C(F)(F)F)c1` [Example 3.020, trifloxystrobin], the Efficacy % in the data set on Septoria tritici [1] (5 ppm) was 90%; with Pyrenophora teres (5 ppm), 6%; with Pyricularia oryzae (5 ppm), 98%. In addition, the pest or weed control at 2.5 ppm in the data set with Septoria tritici [2] (Zymoseptoria tritici, 504 h, 2.5 ppm a.i., read-out: Efficacy in % found) was 29%; with Puccinia triticina (Puccinia triticina, 192 h, Table H1, 2.5 ppm a.i., read-out: Efficacy in % found) it was 0%. Also, the pest or weed control at 5 ppm in the data set on Septoria tritici [2] (Zymoseptoria tritici, 504 h, 5 ppm a.i., read-out: Efficacy in % found) stood at 29%; with Puccinia triticina (Puccinia triticina, 192 h, Table H1, 5 ppm a.i., read-out: Efficacy in % found), 0%. The pest or weed control at 10 ppm with Septoria tritici [2] (Zymoseptoria tritici, 504 h, 10 ppm a.i., read-out: Efficacy in % found) came to 29%; in the data set on Puccinia triticina (Puccinia triticina, 192 h, Table H1, 10 ppm a.i., read-out: Efficacy in % found), 11%. Also, the “Ecotoxicity LC50-96 h found” value in data set [4] is 0.24 ppm a.i.
As to `CC(C)(C)C(O)(CCc1ccc(Cl)cc1)Cn1cncn1` (stereo not shown) [Example 1.021, tebuconazole], the “Efficacy in % found” value is given as 37% with Sphaerotheca fuliginea (2.5 ppm a.i.); 69% in the data set on Sphaerotheca fuliginea (5 ppm a.i.); 83% with Sphaerotheca fuliginea (10 ppm a.i.); 0% in the data set with Septoria tritici [2] (25 ppm a.i.); 0% in the data set with Septoria tritici [2] (50 ppm a.i.); 0% in the data set on Septoria tritici [2] (100 ppm a.i.). Besides, the “Efficacy in % found” value in the data set on Venturia inaequalis (Table E1, 2.5 ppm a.i.) worked out at 4%; with Venturia inaequalis (Table E1, 5 ppm a.i.) it was 34%; with Venturia inaequalis (Table E1, 10 ppm a.i.), 44%; in the data set with Puccinia triticina (25 ppm a.i.) it was 22%; in the data set with Puccinia triticina (50 ppm a.i.), 78%; with Puccinia triticina (100 ppm a.i.), 89%. In addition, the “Ecotoxicity LC50-96 h found” value in [4] is given as 19.7 ppm a.i. Besides, the Efficacy % with Alternaria alternata (0.04 ppm) was 19%; with Alternaria alternata (0.2 ppm) it was 24%; in the data set with Alternaria alternata (1 ppm), 36%; in the data set on Pyricularia oryzae (0.2 ppm) it was 87%; in the data set with Pyricularia oryzae (1 ppm), 87% and 89%.
Regarding `COCC(=O)N(c1c(C)cccc1C)C(C)C(=O)OC` (stereo not shown) [Example 12.003, metalaxyl], the “Efficacy in % found” value was 0% in the data set on Septoria tritici [2] (250 ppm a.i.); 0% in the data set with Septoria tritici [2] (500 ppm a.i.); 0% in the data set on Septoria tritici [2] (1000 ppm a.i.); 0% in the data set with Phakopsora pachyrhizi (50 ppm a.i.); 0% in the data set with Phakopsora pachyrhizi (100 ppm a.i.); 23% in the data set on Phakopsora pachyrhizi (200 ppm a.i.). Also, the “Efficacy in % found” value in the data set on Venturia inaequalis (Table E2, 50 ppm a.i.) is 11%; with Venturia inaequalis (Table E2, 100 ppm a.i.), 11%; in the data set with Venturia inaequalis (Table E2, 200 ppm a.i.) it was 19%; with Puccinia triticina (1000 ppm a.i.), 30% and 44%; with Leptosphaeria nodorum (250 ppm a.i.), 29%; in the data set on Leptosphaeria nodorum (500 ppm a.i.), 0%. Moreover, the “Efficacy in % found” value in the data set on Leptosphaeria nodorum (1000 ppm a.i.) was 0%. The “Ecotoxicity LC50-96 h found” value in data set [4] is listed as above 200 ppm a.i.

Source of the values: patent US20200008426A1, “ACTIVE COMPOUND COMBINATIONS” (BAYER AKTIENGESELLSCHAFT, priority 2017, published 2020).
